Data reported in ChEMBL document CHEMBL1201862, “PubChem BioAssay data set” (2004).
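A five-concentration, 48-hour dose response in 96-well plates underlies each endpoint, interpolated linearly between surrounding concentrations. GI50: concentration for 50% inhibition of growth.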 Calls of active or inactive are those of the source. Cut-off read from the data, not from the text of the source: active = GI50 up to about 1.1 µM and inactive = higher.

Experiments:
Assay in all cases: NCI tumour cell line growth inhibition, 48 h
786-0 = test system: 786-0
A549 = test system: A549
ACHN = test system: ACHN
CCRF-CEM = test system: CCRF-CEM
COLO 205 = test system: COLO 205
DLD-1 = test system: DLD-1
EKVX = test system: EKVX
HL-60 = test system: HL-60
HOP-18 = test system: HOP-18
HOP-62 = test system: HOP-62
HOP-92 = test system: HOP-92
HT-29 = test system: HT-29
IGROV-1 = test system: IGROV-1
K562 = test system: K562
KM12 = test system: KM12
LOX IMVI = test system: LOX IMVI
LXFL 529 = test system: LXFL 529
M14 = test system: M14
M19-MEL = test system: M19-MEL
MOLT-4 = test system: MOLT-4
Malme-3M = test system: Malme-3M
NCI-H23 = test system: NCI-H23
NCI-H460 = test system: NCI-H460
NCI-H522 = test system: NCI-H522
OVCAR-4 = test system: OVCAR-4
OVCAR-5 = test system: OVCAR-5
OVCAR-8 = test system: OVCAR-8
RPMI-8226 = test system: RPMI-8226
RXF 631 = test system: RXF 631
SF-539 = test system: SF-539
SK-MEL-28 = test system: SK-MEL-28
SK-OV-3 = test system: SK-OV-3
SN12C = test system: SN12C
SNB-19 = test system: SNB-19
SNB-75 = test system: SNB-75
SNB-78 = test system: SNB-78
SW-620 = test system: SW-620
TK-10 = test system: TK-10
UACC-257 = test system: UACC-257
UACC-62 = test system: UACC-62
UO-31 = test system: UO-31
A498 = test system: A498
CAKI-1 = test system: CAKI-1
DMS-114 = test system: DMS-114
DMS-273 = test system: DMS-273
HCC 2998 = test system: HCC 2998
HCT-116 = test system: HCT-116
HCT-15 = test system: HCT-15
KM-20L2 = test system: KM-20L2
OVCAR-3 = test system: OVCAR-3
RXF 393 = test system: RXF 393
SF-268 = test system: SF-268
SF-295 = test system: SF-295
SK-MEL-2 = test system: SK-MEL-2
SK-MEL-5 = test system: SK-MEL-5
SR = test system: SR
U-251 = test system: U-251
XF498 = test system: XF498

COc1ccc2nc(-c3ccccn3)cc(O)c2c1
GI50 (786-0): 90.2 µM (inactive) | GI50 (A549): 44 µM (inactive) | GI50 (ACHN): 92.5 µM (inactive) | GI50 (CCRF-CEM): 51.2 µM (inactive) | GI50 (COLO 205): 28 µM (inactive) | GI50 (DLD-1): 52.6 µM (inactive) | GI50 (EKVX): 55.3 µM (inactive) | GI50 (HL-60): 34 µM (inactive) | GI50 (HOP-18): 61.7 µM (inactive) | GI50 (HOP-62): > 100 µM (inactive) | GI50 (HOP-92): 43.9 µM (inactive) | GI50 (HT-29): 42.8 µM (inactive) | GI50 (IGROV-1): 44.6 µM (inactive) | GI50 (K562): 17.4 µM (inactive) | GI50 (KM12): 26.7 µM (inactive) | GI50 (LOX IMVI): 41.2 µM (inactive) | GI50 (LXFL 529): 41.5 µM (inactive) | GI50 (M14): 24.2 µM (inactive) | GI50 (M19-MEL): 31.8 µM (inactive) | GI50 (MOLT-4): 28.8 µM (inactive) | GI50 (Malme-3M): 24 µM (inactive) | GI50 (NCI-H23): 41.9 µM (inactive) | GI50 (NCI-H460): 34.7 µM (inactive) | GI50 (NCI-H522): 20.4 µM (inactive) | GI50 (OVCAR-4): 72.3 µM (inactive) | GI50 (OVCAR-5): > 100 µM (inactive) | GI50 (OVCAR-8): 39.8 µM (inactive) | GI50 (RPMI-8226): 37.8 µM (inactive) | GI50 (RXF 631): 85.1 µM (inactive) | GI50 (SF-539): 30 µM (inactive) | GI50 (SK-MEL-28): 35.5 µM (inactive) | GI50 (SK-OV-3): 52.7 µM (inactive) | GI50 (SN12C): 47 µM (inactive) | GI50 (SNB-19): > 100 µM (inactive) | GI50 (SNB-75): 18.4 µM (inactive) | GI50 (SNB-78): 99.3 µM (inactive) | GI50 (SW-620): 32 µM (inactive) | GI50 (TK-10): 96.4 µM (inactive) | GI50 (UACC-257): 50.7 µM (inactive) | GI50 (UACC-62): 32.8 µM (inactive) | GI50 (UO-31): 18.4 µM (inactive)

Cn1ccnc1Cn1cc(-c2cccc(-c3cn[nH]c3)c2)cn1
GI50 (786-0): > 100 µM (inactive) | GI50 (A498): 38.1 µM (inactive) | GI50 (A549): 39.6 µM (inactive) | GI50 (ACHN): 28.1 µM (inactive) | GI50 (CAKI-1): 15.2 µM (inactive) | GI50 (CCRF-CEM): 58.5 µM (inactive) | GI50 (COLO 205): > 100 µM (inactive) | GI50 (DLD-1): > 100 µM (inactive) | GI50 (DMS-114): > 100 µM (inactive) | GI50 (DMS-273): > 100 µM (inactive) | GI50 (EKVX): 14.6 µM (inactive) | GI50 (HCC 2998): > 100 µM (inactive) | GI50 (HCT-116): 50.7 µM (inactive) | GI50 (HCT-15): 79.3 µM | GI50 (HL-60): > 100 µM (inactive) | GI50 (HOP-62): > 100 µM (inactive) | GI50 (HOP-92): 50.1 µM (inactive) | GI50 (K562): 55 µM (inactive) | GI50 (KM-20L2): > 100 µM (inactive) | GI50 (KM12): > 100 µM (inactive) | GI50 (LOX IMVI): 88.5 µM (inactive) | GI50 (LXFL 529): 99.1 µM (inactive) | GI50 (M14): > 100 µM (inactive) | GI50 (M19-MEL): > 100 µM (inactive) | GI50 (MOLT-4): 63.4 µM (inactive) | GI50 (NCI-H460): > 100 µM (inactive) | GI50 (NCI-H522): 22.6 µM (inactive) | GI50 (OVCAR-3): > 100 µM (inactive) | GI50 (OVCAR-4): 55.2 µM (inactive) | GI50 (OVCAR-8): > 100 µM (inactive) | GI50 (RPMI-8226): > 100 µM (inactive) | GI50 (RXF 393): 24.8 µM (inactive) | GI50 (RXF 631): > 100 µM (inactive) | GI50 (SF-268): 44.6 µM (inactive) | GI50 (SF-295): > 100 µM (inactive) | GI50 (SK-MEL-28): > 100 µM (inactive) | GI50 (SK-MEL-2): > 100 µM (inactive) | GI50 (SK-MEL-5): > 100 µM (inactive) | GI50 (SK-OV-3): 0.753 µM (active) | GI50 (SN12C): 69.7 µM (inactive) | GI50 (SNB-19): > 100 µM (inactive) | GI50 (SNB-75): 23.2 µM (inactive) | GI50 (SNB-78): > 100 µM (inactive) | GI50 (SR): 80 µM (inactive) | GI50 (SW-620): 82.6 µM (inactive) | GI50 (TK-10): 35.5 µM (inactive) | GI50 (U-251): 84.5 µM (inactive) | GI50 (UACC-257): > 100 µM (inactive) | GI50 (UACC-62): 9.23 µM (inactive) | GI50 (UO-31): 19.2 µM (inactive) | GI50 (XF498): > 100 µM (inactive)
